According to publication PMC5453931, “Cathelicidin-trypsin inhibitor loop conjugate represents a promising antibiotic candidate with protease stability” (Scientific Reports, 2017):

Experiments:
[1] = system: C. albicans biofilm formation; assay: Biofilm inhibition assay (XTT); type: cell-based; conditions: Candida albicans, 4 μg/mL, 36 h, 35 °C, Fig. 2A
Protocol: TIH3F that has the best antifungal activity among the four peptides was chosen to examine the effect on the C. albicans biofilm formation and the established biofilm using previously described method with minor modifications. In the biofilm inhibition assay, after the incubation at 35 °C, C. Albicans was diluted to 1 × 10^6 CFU/mL in RPMI-1640 medium. Then 2 mL culture was added to each well of 6-well plates with coverslips at the bottom, and incubated at 35 °C in a humid chamber for 3 h. Non-adherent cells were then washed away by PBS, and series concentrations of TIH3F (0, 1, 2, 4 μg/mL) were added into the plate, with amphotericin B as control. The formation of the biofilm was determined by the XTT Cell Proliferation and Cytotoxicity Kit (KeyGEN BioTECH, Nanjing, China) after 36-h incubation. In the biofilm disruption assay, the biofilm was preformed as described above but with a longer incubation time up to 72 h. Then TIH3F and amphotericin B of series concentrations (0, 2.5, 5, 10, 25, 50 μg/mL) was added after non-adherent cells were washed out. The measurement of remaining biofilm was then determined. […] After washing with PBS, the plate was immediately photographed with fluorescence microscope.

[2] = system: established C. albicans biofilm; assay: Biofilm disruption assay, established biofilm (XTT, PI/SYBR Green I); type: cell-based; conditions: 5 μg/mL, biofilm preformed 72 h, XTT metabolic activity; Fig. 2B
Protocol: TIH3F that has the best antifungal activity among the four peptides was chosen to examine the effect on the C. albicans biofilm formation and the established biofilm using previously described method with minor modifications. In the biofilm inhibition assay, after the incubation at 35 °C, C. Albicans was diluted to 1 × 10^6 CFU/mL in RPMI-1640 medium. Then 2 mL culture was added to each well of 6-well plates with coverslips at the bottom, and incubated at 35 °C in a humid chamber for 3 h. Non-adherent cells were then washed away by PBS, and series concentrations of TIH3F (0, 1, 2, 4 μg/mL) were added into the plate, with amphotericin B as control. The formation of the biofilm was determined by the XTT Cell Proliferation and Cytotoxicity Kit (KeyGEN BioTECH, Nanjing, China) after 36-h incubation. In the biofilm disruption assay, the biofilm was preformed as described above but with a longer incubation time up to 72 h. Then TIH3F and amphotericin B of series concentrations (0, 2.5, 5, 10, 25, 50 μg/mL) was added after non-adherent cells were washed out. The measurement of remaining biofilm was then determined. In order to further confirm the antifungal effect of TIH3F against C. albicans encased in biofilms, the established biofilm was treated with TIH3F (0, 5, 50 μg/mL), washed three times with PBS, and finally stained with 1 mL 1000-fold diluted PI/SYBR Green I at 30 °C in the dark for 20 min. After washing with PBS, the plate was immediately photographed with fluorescence microscope.

In the case of `C[C@@H]1[C@H](O)[C@@H](C)/C=C/C=C/C=C/C=C/C=C/C=C/C=C/[C@H](O[C@@H]2O[C@H](C)[C@@H](O)[C@H](N)[C@@H]2O)C[C@@H]2O[C@](O)(C[C@@H](O)C[C@@H](O)[C@H](O)CC[C@@H](O)C[C@@H](O)CC(=O)O[C@H]1C)C[C@H](O)[C@H]2C(=O)O` [amphotericin B, reference compound], the inhibition at 4 µg/mL [1] is reported as 25% and the “damage of established C. albicans biofilm” value [2] is reported as “remained intact”.
